Assay results reported in patent US12048684B2, “Arctigenin liquid nano-preparation and preparation method thereof” (Wuhan Academy of Agricultural Sciences, priority 2022, dated 2024).

Assay: Solubility in pure water at room temperature
Assay type: physicochemical

SMILES: COc1cc(C[C@H]2C(=O)OC[C@@H]2Cc2ccc(OC)c(OC)c2)ccc1O [arctigenin raw material, arctigenin]
- solubility (water solubility of arctigenin): < 0.05%
